Legend:
Assay in all cases: two-electrode voltage clamp, Xenopus oocytes
Type in all cases: cell-based
[1] = molecular target: T1, AgamOR8 (Anopheles gambiae, UniProt Q7PUT5); conditions: 0.1 uM to 0.1 mM; -80 mV, pH 7.4; inward current (agonist)
T1 sequence (Q7PUT5 1-399): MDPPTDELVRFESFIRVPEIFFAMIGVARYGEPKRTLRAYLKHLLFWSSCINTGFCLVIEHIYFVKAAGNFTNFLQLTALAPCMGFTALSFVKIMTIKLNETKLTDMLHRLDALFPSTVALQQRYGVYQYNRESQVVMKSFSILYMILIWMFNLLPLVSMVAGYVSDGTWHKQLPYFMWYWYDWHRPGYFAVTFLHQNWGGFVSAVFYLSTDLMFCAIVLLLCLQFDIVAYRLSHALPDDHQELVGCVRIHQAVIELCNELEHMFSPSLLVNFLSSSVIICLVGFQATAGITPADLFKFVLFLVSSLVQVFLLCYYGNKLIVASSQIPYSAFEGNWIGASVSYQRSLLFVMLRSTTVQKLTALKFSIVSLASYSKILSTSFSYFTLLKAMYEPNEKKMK
T1 sequence (Q7QCC7 1-478 partner): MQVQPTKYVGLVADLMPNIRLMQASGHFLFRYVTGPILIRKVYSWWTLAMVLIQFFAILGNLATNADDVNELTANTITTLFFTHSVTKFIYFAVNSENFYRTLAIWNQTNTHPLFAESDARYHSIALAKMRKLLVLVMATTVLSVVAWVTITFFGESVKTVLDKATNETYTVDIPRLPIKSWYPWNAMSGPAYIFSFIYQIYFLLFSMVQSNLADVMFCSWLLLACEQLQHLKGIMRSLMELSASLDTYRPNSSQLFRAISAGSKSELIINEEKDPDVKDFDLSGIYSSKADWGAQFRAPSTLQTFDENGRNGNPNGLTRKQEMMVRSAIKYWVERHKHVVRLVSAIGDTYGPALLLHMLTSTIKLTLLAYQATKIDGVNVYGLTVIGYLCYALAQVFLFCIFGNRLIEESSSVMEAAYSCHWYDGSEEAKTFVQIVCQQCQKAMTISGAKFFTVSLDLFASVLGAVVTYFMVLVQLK

[2] = molecular target: T2, AgamOR40 (Anopheles gambiae, UniProt Q7PR01); conditions: 0.01-1 mM; -80 mV, pH 7.4; inward current (agonist)
T2 sequence (Q7PR01 1-454): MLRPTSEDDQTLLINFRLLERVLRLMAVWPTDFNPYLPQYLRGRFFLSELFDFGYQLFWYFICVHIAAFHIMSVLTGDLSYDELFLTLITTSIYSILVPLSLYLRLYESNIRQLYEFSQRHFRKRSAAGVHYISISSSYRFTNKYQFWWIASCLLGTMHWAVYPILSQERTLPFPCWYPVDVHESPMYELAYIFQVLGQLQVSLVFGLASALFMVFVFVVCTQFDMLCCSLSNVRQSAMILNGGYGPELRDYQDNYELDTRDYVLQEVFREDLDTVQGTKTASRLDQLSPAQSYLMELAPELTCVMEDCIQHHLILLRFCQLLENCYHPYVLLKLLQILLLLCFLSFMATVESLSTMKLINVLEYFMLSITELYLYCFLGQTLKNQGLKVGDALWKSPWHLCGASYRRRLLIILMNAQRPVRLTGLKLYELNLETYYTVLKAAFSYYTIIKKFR
T2 sequence (Q7QCC7 1-478 partner): T1 sequence (Q7QCC7 1-478 partner)

[3] = molecular target: T3, AgamOR10/AgamOrco (Anopheles gambiae, UniProt B5U0U7); conditions: 0.01-1 mM; -80 mV, pH 7.4; outward (inhibitory) current
T3 sequence (B5U0U7 1-375): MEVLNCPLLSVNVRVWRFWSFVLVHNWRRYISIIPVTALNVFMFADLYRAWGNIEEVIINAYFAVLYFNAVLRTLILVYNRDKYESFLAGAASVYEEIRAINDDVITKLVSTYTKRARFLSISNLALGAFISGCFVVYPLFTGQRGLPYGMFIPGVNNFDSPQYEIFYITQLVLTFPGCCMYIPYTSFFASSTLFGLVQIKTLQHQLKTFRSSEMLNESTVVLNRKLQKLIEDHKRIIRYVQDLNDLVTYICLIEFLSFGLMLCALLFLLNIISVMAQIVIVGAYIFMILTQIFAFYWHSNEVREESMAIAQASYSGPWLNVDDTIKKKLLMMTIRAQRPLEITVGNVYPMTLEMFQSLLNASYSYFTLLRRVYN
T3 sequence (Q7QCC7 1-478 partner): T1 sequence (Q7QCC7 1-478 partner)

Compound: C=CC(O)CCCCC (stereo not shown) [1-octen-3-ol]
- two-electrode voltage clamp, Xenopus oocytes [1]: generated robust, dose-dependent inward currents in response to 1-octen-3-ol

Compound: CCN(CC)C(=O)c1cccc(C)c1 [DEET]
- two-electrode voltage clamp, Xenopus oocytes [2]: generated dose-dependent inward currents in response to DEET as well as to its best ligand, fenchone

Compound: CC12CCC(C1)C(C)(C)C2=O (stereo not shown) [fenchone]
- two-electrode voltage clamp, Xenopus oocytes [2]: generated dose-dependent inward currents in response to DEET as well as to its best ligand, fenchone

Compound: CC/C=C\C[C@H]1C(=O)CC[C@@H]1CC(=O)OC [BDR-4, methyl jasmonate]
- two-electrode voltage clamp, Xenopus oocytes [3]: The strongest outward currents were obtained with BDR-4 (methyl jasmonate)
